Measured values as given in patent US20240139205A1, “MODULATORS OF ARALAR FOR TREATING NEUROLOGICAL DISORDERS” (Universite de Lausanne, priority 2020, published 2024).

Key:
[1] = tested on: WT mice; experiment: three-chamber test (sociability) in WT mice; type: in vivo, mouse; details: acute diazepam i.p. 0.2 mg/ml at 1% of bodyweight, 30 min prior to test
Method: Sociability and social novelty were evaluated using the three-chamber test previously described (Crawley (2007), Brain Pathology 17(4), 448-459). Briefly, the set-up consisted of a rectangular non-transparent Plexiglas box divided into three compartments, separated by two partitions (each compartment: 30×19×21 cm). These partitions contained a small passage in the middle (8×7 cm; that can be sealed with small guillotine doors), which allowed the mouse to transition between adjacent compartments. During the acclimation phase, mice were allowed to explore the empty central compartment for 5 min. At the start of the test, both sliding doors were closed and each of the outer compartments were equipped with a wired cage (10 cm diameter, 20 cm high), one containing an object (50 ml Falcon Tube or a glue stick) and the other containing a mouse (i.e. stranger 1). Holding cages were used to avoid inter-male fighting but allow visual and olfactory contact between mice. […] Mice were recorded with a camera and were tracked with Ethovision software (Noldus, Wageningen, The Netherlands). Time spent in close proximity (<2 cm) to the holding cages was recorded. Preference index was calculated as: Time stranger 1/(Time stranger 1+Time object) and Timestranger 2/(Timestranger 1+Timestranger 2) for sociability and social memory/social novelty, respectively. […]

[2] = tested on: Cyfip^85.1/+ flies; experiment: competition for food assay (total number of social events) in Cyfip haploinsufficient flies; type: in vivo, Drosophila; details: Cyfip^85.1/+ flies; Diazepam 50 μM in food, 1 day
Method: Experiments were performed with socially experienced, 3-7 days-old male flies. Groups of eight males from the same genotype were anesthetized 24 h prior to the assay and placed in vials with food. On the day of the assay, the males were transferred without anesthesia to an empty vial and were deprived of food for 90 minutes, after which they were exposed to a food droplet and given 2 minutes to acclimate to this disturbance. The flies were then observed simultaneously for an additional 2 minutes, and the total number of social events was scored. Monitored social events were i.e. approaches, lunges, tussles, wing threat and the initiation of courtship. Of note, one interaction involving two or more flies was counted as one social event in total (Zwarts (2011), PNAS 108, 17070-17075. The behavioral assays were conducted in a behavioral chamber (25° C., 60-70% humidity) between 8 a.m. and 11 a.m. Statistics were calculated using a one-way fixed effect ANOVA model, and Kruskal Wallis test in combination with Dunn's multiple comparison test.
Example 8. GABA augmentation fully normalizes the behavioral abnormalities of Cyfip^85.1/+ flies. GABA levels were augmented in Cyfip^85.1/+ flies in three distinct ways: flies were fed either GABA, DL-2,4-diaminobutyric acid (DABA) which is a GABA-transaminase inhibitor and/or a GABA reuptake inhibitor or the anticonvulsant valproic acid (VPA) which induces GABA release (Chateauvieux (2010), Journal of biomedicine & biotechnology 2010; Coghlan (2012), Neurosci Biobehav Rev 36, 2044-2055; Reynolds (2007), Current medicinal chemistry 14, 2799-2812). All compounds were purchased from Sigma-Aldrich and were used as described before (Kanellopoulos (2012), J Neurosci. 32(38):13111-24; Zwarts (2011), PNAS 108, 17070-17075). In brief, the drugs were dissolved as per the manufacturer's instructions and used at the following concentrations: GABA at 50 μM, DABA 100 μM, Valproic acid (VPA) at 1 mM and Diazepam at 50 μM. Compounds in solution were mixed with Formula 4-24® Instant Drosophila Medium (blue food) in water. Approximately 50-60 adult flies were placed in plastic vials containing 500 μl of each solution on top of an agar matrix and allowed to feed ad libitum before behaviour analysis. Vehicle treatment consisted of solvent added to blue food alone.
Example 16. Drug screening to identify compounds that ameliorate social behavior deficits in flies with Cyfip haploinsufficiency. Control (w1118) or CYFIP (Cyfip^85.1/+) flies were treated, i.e. fed, with various compounds from the Prestwick Chemical Library® as described in Examples 8 and 15. All compounds were used at a concentration of 50 μM. The total number of social interactions was analyzed in a competition for food assay at various time-points (1, 2 or 5 days) of treatment with the compound or vehicle controls as described in Example 2.

[3] = tested on: Cyfip1+/− mice; experiment: three-chamber test (sociability and social novelty) in Cyfip1+/− mice; type: in vivo, mouse; details: for social preference deficit (sociability index, stranger 1 vs object): acute diazepam i.p. 0.2 mg/ml at 1% of bodyweight, 30 min prior to test
Method: Sociability and social novelty were evaluated using the three-chamber test previously described (Crawley (2007), Brain Pathology 17(4), 448-459). Briefly, the set-up consisted of a rectangular non-transparent Plexiglas box divided into three compartments, separated by two partitions (each compartment: 30×19×21 cm). These partitions contained a small passage in the middle (8×7 cm; that can be sealed with small guillotine doors), which allowed the mouse to transition between adjacent compartments. During the acclimation phase, mice were allowed to explore the empty central compartment for 5 min. At the start of the test, both sliding doors were closed and each of the outer compartments were equipped with a wired cage (10 cm diameter, 20 cm high), one containing an object (50 ml Falcon Tube or a glue stick) and the other containing a mouse (i.e. stranger 1). Holding cages were used to avoid inter-male fighting but allow visual and olfactory contact between mice. During the sociability phase, the guillotine doors were removed and mice could freely explore the entire set-up for 10 min. It is expected from healthy mice that more interest is shown towards another mouse compared to an object. After 10 min, mice were placed into an empty housing cage, and the holding cage containing the object was replaced by a holding cage containing a novel mouse (i.e. stranger 2). During the next phase (social memory), the stranger 1 mouse has become familiar and it is expected that healthy mice show more interest towards the stranger 2 mouse compared to the stranger 1 mouse. The guillotine doors were removed and mice were allowed to explore the set-up for another 10 min. The location of the stranger 1 and stranger 2 mice was counterbalanced between animals and the box was cleaned with 70% EtOH solution after each animal. All stranger mice used were of the same sex as the tested mouse and had never been in contact with the test mice. Mice were recorded with a camera and were tracked with Ethovision software (Noldus, Wageningen, The Netherlands). Time spent in close proximity (<2 cm) to the holding cages was recorded. Preference index was calculated as: Time stranger 1/(Time stranger 1+Time object) and Timestranger 2/(Timestranger 1+Timestranger 2) for sociability and social memory/social novelty, respectively.
Diazepam, a GABA-A positive modulator, was purchased from Roche (Basel, Switzerland) (diazepam already dissolved in saline at a concentration of 5 mg/ml). Diazepam was further diluted in saline and adjusted to the dose of 0.2 mg/ml. Mice were first tested in the three-chamber test in control conditions. 72 h afterwards, all mice were administered intraperitoneally with diazepam at 1% of bodyweight 30 min prior to re-testing. […]

CN1C(=O)CN=C(c2ccccc2)c2cc(Cl)ccc21 [diazepam]
social preference (sociability index) [1]: slight decrease in social preference | social deficits (social events) [2]: restored the social deficits | increase in social preference after treatment (within-subject, control vs diazepam-treated) ([3]; acute diazepam i.p.): approximately 50% | social preference deficit (sociability index, stranger 1 vs object) [3]: rescued the social preference deficit | social preference deficit (sociability index, stranger 1 vs object) ([3]; listed as Diazepam): restores deficits in social behavior | preference for the novel mouse (social novelty index) ([3]; acute diazepam i.p., genotype difference not statistically significant): slightly increase
